Patent US5354913A, “Optically active phenol derivatives and preparation thereof” (Takeda Chemical Industries, Ltd., priority 1992, dated 1994)

Legend:
[1] = tested on: guinea-pig platelets; experiment: U-46619 (thromboxane A2 mimic)-induced aggregation in guinea-pig platelets (Experiment 1); assay type: cell-based; conditions: guinea-pig PRP, U-46619 3×10^-7 M
Procedure: Thromboxane A2 antagonistic activity Effect on thromboxane A2 minic (U-46619) - induced aggregation in guinea-pig platelets.
(§1) Method: Blood was collected in 3.15% sodium citrate (0.1 ml for 0.9 ml of blood) by aortic puncture from anesthetized guinea-pigs. Citrated blood samples were centrifuged at 950 rpm for 10 minutes and 2,000 rpm for 10 minutes at room temperature to obtain platelet-rich plasma (PRP) and platelet-poor plasma (PPP), respectively. The platelet count of PRP was adjusted to 5,000,000/μl with PPP. Platelet aggregation was measured with a photometer (Hematracer 6, Niko Bioscience, Japan). PRP (250 μl) was preincubated at 37° C. for 2 minutes and then incubated for 2 minutes with drug solution (25 μl), followed by stimulation with U-46619 (25 μl). Effect of drug was shown as the percent inhibition of maximal aggregation of drug-treated group versus that of control group. The concentration of U-46619 was chosen to obtain submaximal aggregation in each PRP (3×10^-7 M).

[2] = tested on: human platelets; experiment: U-46619 (thromboxane A2 mimic)-induced aggregation in human platelets (Experiment 2); assay type: cell-based; conditions: Platelet, U-46619 10^-5 ~3×10^-5 M; for inhibition at 0.3 µM: 3 × 10^-7 M; for inhibition at 0.1 µM: 10^-7 M
Procedure: Thromboxane A2 antagonistic activity Effect on thromboxane A2 minic (U-46619) - induced aggregation in human platelets.
as §1, with “300,000/μl” for “5,000,000/μl”, “(10^-5 ~3×10^-5” for “(3×10^-7”

[3] = tested on: U-46619 (TXA2 minic) - induced bronchoconstriction in guinea pig; experiment: Inhibitory effect on U-46619 (TXA2 mimic)-induced bronchoconstriction in guinea pig (Experiment 4); assay type: in vivo; conditions: orally 1 hour before U-46619 (10 μg/kg), p < 0.01 vs control group
Procedure: Inhibitory effect on U-46619 (TXA2 minic) - induced bronchoconstriction in guinea pig.
Method: Six male Hartley guinea pig were used per one group. The guinea pig anesthetized with urethane (1.5 g/kg, i.p.) was fixed in a dorsal position, subjected to tracheotomy and connected to a respirator through a cannula. A side branch of the tracheal cannula was connected to a respirator (Harvard apparatus rodent respirator Type 680) at the rate of 70 strokes/min. and a constant volume of 3 to 5 ml.
Inflation pressure was kept constant at 10 cm H2 O.
After treatment with gallamine triethiodide (1 mg/kg, i.v.), U-46619 (10 μg/kg) dissolved in a physiolosical saline solution was given through a carotid cannula and the airway resistance was measured by the overflow technique of Konzett-Rossler method (Konzett, H. and Rossler, R., Naunyn-Schmiedegerg's Arch, Exp. Path. Pharmak., 195, 71-74 (1940)). A test compound was suspended in 5% gum arabic solution and was administered orally 1 hour before the tratment with U-46619.

[4] = tested on: guinea pig tracheal strip; experiment: Inhibitory effect on U-46619 (TXA2 mimic)-induced contraction in guinea pig tracheal strip (Experiment 3); conditions: Cavia porcellus; U-46619 10^-8 M; compound added 1 minute before; read-out: IC50 (Concentration for 50% inhibition)
Procedure: Inhibitory effect on U-46619 (TXA2 minic) - induced contraction in guinea pig tracheal strip
Method: Guinea pig tracheae were removed, and tracheal strips were prepared. Each strip was placed in a 10 ml organ bath containing Tyrode's solution aerated with 5% CO2 -95% O2 gas at 37° C. The tracheal strip was placed under resting tension of 1 g. The contractile response of the strip to thromboxane A2 minic U-46619 (10^-8 M) were examined. The strip was treated with the test compound for 1 minute before the addition of U-46619.
Result: The results are shown in Table 10 as the concentration for 50% inhibition (IC50).

[5] = tested on: rats; experiment: Oral toxicity in rats, 2 weeks; assay type: in vivo, rat; conditions: orally, 1000 mg/kg/day for 2 weeks, 3 rats
Procedure: Toxicity of the derivatives of the present invention is low. For example, in case that (R)-7-(4-fluorophenyl)-7-(5-hydroxy-6,7-dimethyl-l-oxoindan-4-yl)heptanoicacid was administered orally to 3 rats at a dose of 1000 mg/kg/day for 2 weeks, no rat died. The derivatives of the present invention can be safely administered orally or parenterally as they are or as pharmaceutical compositions of known forms obtained by admixing them with known pharmaceutically acceptable carriers, excipients and the like, for example, tablets, capsules (including soft capsules and micro-capsules), liquids, injection preparations, suppositories and the like, according to pharmaceutically acceptable methods. The dosage is varied according to patients, routes of administration, conditions of diseases to be treated and the like. However, in the case of oral administration to, for example, an adult patient, usually, a dose per one administration is about 0.1 to 20 mg/kg of the body weight, perferably, about 0.1 to 10 mg/kg of the body weight and, conveniently, the administration is carried out one to two times per day.

Compound	% Inhibition of aggregation ([1]; 3 × 10^-8 M)	% Inhibition of aggregation ([1]; 10^-7 M)	% Inhibition of aggregation ([1]; 10^-8 M)	inhibition at 0.3 µM [2]	inhibition at 0.1 µM [2]	inhibition at 0.3 µM ([1]; Cavia porcellus, Platelet, 3 × 10^-7 M)	% Inhibition ([3]; 0.31 mg/kg)	% Inhibition ([3]; 1.25 mg/kg)	IC50 [4]	inhibition at 0.03 µM ([2]; 3 × 10^-8 M)	inhibition at 0.01 µM ([2]; 10^-8 M)	mortality [5]
Cc1c(C)c(CO)c(C)c([C@H](CCCCCC(=O)O)c2ccc(F)cc2)c1O [Compound 20, (R)-7-(4-fluorophenyl)-7-(2-hydroxy-5-hydroxylmethyl-3,4,6-trimethylphenyl)heptanoic acid]	12%	77%	3%	100%	48%	–	–	–	–	–	–	–
Cc1c(C)c2c(c([C@H](CCCCCC(=O)O)c3ccc(F)cc3)c1O)CCC2=O [Compound 28, (R)-7-(4-fluorophenyl)-7-(5-hydroxy-6,7-dimethyl-1-oxoindan-4-yl)heptanoic acid]	5%	36%	0%	100%	78%	89%	84%	84%	0.7 nM	30%	13%	no rat died
